Data from paper PMC11521914 (Frontiers in Pharmacology, 2024).
pIC50: −log10 of the molar value.

Columns and labels:
[1] = target: T1, Fructose-1,6-bisphosphatase enzyme (FBPase) (Rattus norvegicus, UniProt P19112); test: Fructose-1,6-bisphosphatase (FBPase) enzyme activity inhibition assay; assay type: biochemical; conditions: rat liver cytosolic supernatant, 0.1 mM FBP
T1 construct: The reaction was started by adding the cytosolic supernatant previously diluted in buffer without substrate; from tissue; host or cells: rat liver, cytosolic supernatant
T1 sequence (P19112 1-363): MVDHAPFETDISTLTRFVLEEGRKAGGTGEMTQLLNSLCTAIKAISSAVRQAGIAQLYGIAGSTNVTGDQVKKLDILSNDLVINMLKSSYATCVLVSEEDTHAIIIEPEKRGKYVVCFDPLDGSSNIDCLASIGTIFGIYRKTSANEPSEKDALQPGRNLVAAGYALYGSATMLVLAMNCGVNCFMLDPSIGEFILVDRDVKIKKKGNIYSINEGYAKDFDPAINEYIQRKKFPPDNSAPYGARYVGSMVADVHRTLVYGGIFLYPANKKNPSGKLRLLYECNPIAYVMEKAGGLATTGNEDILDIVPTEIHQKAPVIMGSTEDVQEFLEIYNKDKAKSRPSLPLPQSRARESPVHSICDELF
Procedure: (§1) Livers were removed from 18-h fasted healthy rats (3), which were previously anesthetized with 5% isoflurane ([Unit for Laboratory Animal Medicine, 2023]). Then, they were homogenized in buffer (250 mM sucrose, 1 mM EDTA, 5 mM HEPES, pH 7.4), filtered, and subsequently subjected to differential centrifugation as described by [Andrade-Cetto and Cárdenas-Vázquez (2010)]. Both the microsome-enriched supernatant (containing the enzyme complex glucose-6-phosphatase) and the cytosolic supernatant (containing the enzyme fructose-1,6-bisphosphatase) were collected and stored at −40°C until use.
Colorimetric assays were performed to detect the formation of a phosphomolybdate-malachite green complex with the inorganic phosphate released by the enzyme FBPase. […]
The assays were carried out with substrate-enriched buffer (5 µM EDTA, 5 mM MgCl2, 50 mM Tris-HCl, 0.1 mM FBP, pH 7.2) to which the inhibitors were added at different concentrations (AMP, EtOH-WCg, or junceic acid). […] Finally, the absorbance was measured at 630 nm.
(§2) Finally, for in vitro experiments, absorbance values were transformed into activity percentages following the next formula: Enzyme activity %=AS−ASB/AC−ACB×100
(§3) Where A S is the absorbance of the inhibitor sample at a specific concentration, A SB is the blank of the inhibitor sample, A C is the highest absorbance (without inhibitor), and A CB is the blank of the highest absorbance. […]

[2] = target: T2, Glucose-6-phosphatase enzyme (G6Pase) (Rattus norvegicus, UniProt P43428); test: Glucose-6-phosphatase (G6Pase) enzyme activity inhibition assay; assay type: biochemical; conditions: rat liver microsome-enriched supernatant, 20 mM G6P
T2 construct: dilutions of the supernatant enriched with microsomes were prepared with buffer; from tissue; host or cells: rat liver, microsome-enriched fraction
T2 sequence (P43428 1-357): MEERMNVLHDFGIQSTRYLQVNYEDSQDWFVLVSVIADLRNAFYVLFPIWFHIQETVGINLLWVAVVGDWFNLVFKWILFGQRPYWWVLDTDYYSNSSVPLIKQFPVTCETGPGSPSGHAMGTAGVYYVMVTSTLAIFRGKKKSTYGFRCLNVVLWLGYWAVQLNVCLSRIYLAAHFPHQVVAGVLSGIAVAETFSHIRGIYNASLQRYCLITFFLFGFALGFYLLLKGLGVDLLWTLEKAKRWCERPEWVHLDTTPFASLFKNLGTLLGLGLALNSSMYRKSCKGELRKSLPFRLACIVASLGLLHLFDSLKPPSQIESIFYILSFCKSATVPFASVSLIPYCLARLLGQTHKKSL
Procedure: as §1
Colorimetric assays were carried out to detect the formation of a phosphomolybdate complex, which is proportional to the activity of the G6Pase enzyme complex. The reaction turns blue when G6Pase releases the inorganic phosphate and therefore the lower the color intensity, the greater the inhibition ([Arion, 1989]). […] Finally, the absorbance was measured at 830 nm.
as §2, §3

[3] = tested on: STZ-NA-hyperglycemic rats; test: Evaluation of the hypoglycemic effect (acute glucose curves); assay type: in vivo, Wistar rats
Procedure: (§4) All procedures carried out on animals were approved by the Academic Ethics and Scientific Responsibility Commission (CEARC) of the School of Sciences, UNAM with protocol numbers PI_2021_08_23, PI_2022_21_05b, and PI_2022_22_07. Wistar rats of both sexes, 8 weeks old, were acquired and maintained under standard bioterium conditions (25°C, 55% humidity and 12:12 h light and dark photoperiod) with water and food ad libitum. Treatment administration (vehicle and samples) was performed orally with the help of an esophageal cannula. Blood samples were obtained from the tail vein and glucose measurements were performed in duplicate using Accu-Chek® Active glucometers.
In summary hyperglycemia was induced as described by [Masiello et al. (1998)], rats fasted for 12 h were administered intraperitoneally with 150 mg/kg b. w. of NA and, 15 min later, 65 mg/kg b. w. of STZ was injected intravenously. After 2 weeks, animals with blood glucose values above 180 mg/dL were selected to perform the tests described below.
Basal glucose levels were assessed before giving the treatments. Immediately after the administration of treatments, glucose levels were monitored every hour for 3 h ([Espinoza-Hernández et al., 2021]). Thirty rats fasted for 4 h were divided into five groups (n = 6 each group): 1. Normoglycemic Control (N), administered with physiological solution (vehicle); 2. Hyperglycemic Control (H), which received physiological solution; 3. Hyperglycemic Control + glibenclamide, which was administered with 5 mg/kg b. w. (Aurax®) (HGli) ([Berridge et al., 1992]); 4. Hyperglycemic Group + EtOH-WCg, which received 30 mg/kg b. w. (HCg); and 5. Hyperglycemic Group + junceic acid, administered with 5.6 mg/kg b. w. (HJa).

[4] = tested on: normoglycemic (healthy) rats; test: Fasting glucose and insulin levels, normoglycemic rats; assay type: in vivo, Wistar rats; conditions: normoglycemic rats fasted 12 h, 2 h, glibenclamide 5 mg/kg
Procedure: as §4
(§5) Normoglycemic (healthy) and hyperglycemic rats were used after 12 h of fasting selecting those with blood glucose levels between 90 and 110 mg/dL and 180–220 mg/dL, respectively. Before the administration of the treatment and every 30 min for 2 h, glucose levels were determined and additional blood samples (approximately 300 µL) were obtained, which were immediately centrifuged at 10,000 g for 10 min. […] Insulin quantification was performed using the immunoassay Rat/Mouse Insulin ELISA kit EZRMI-13KEMD Millipore/Merck ([Espinoza-Hernández et al., 2021]). […]
(§6) Data are presented as mean ± standard error of the mean (SEM). […] Differences detected with p < 0.05 were considered statistically significant. […]

[5] = tested on: STZ-NA-hyperglycemic rats; test: Fasting glucose and insulin levels, hyperglycemic rats; assay type: in vivo, Wistar rats; conditions: hyperglycemic rats fasted 12 h, 2 h; glibenclamide 5 mg/kg, EtOH-WCg 30 mg/kg, junceic acid 5.6 mg/kg b.w.
Procedure: as §4, with “glucometers. […]” for “glucometers.”
as §5, §6

[6] = tested on: normoglycemic (healthy) rats; test: Insulin tolerance tests (insulin sensitivity assessment); assay type: in vivo, Wistar rats; conditions: healthy rats fasted 4 h
Procedure: as §4
First, basal glucose was determined and, immediately after, treatments were given. Forty-5 min later, glucose levels were measured and then isophane insulin (Aurax®; 0.5 U/kg b. w.) was administered intraperitoneally. Glucose levels were monitored at minutes 15, 30, 60, and 120 after insulin injection. In total, 24 rats were divided into four groups (n = 6 each group): 1. Control, which received physiological solution (C); 2. […]
Where Tx is the value of glucose or insulin at each time and T0 is the baseline value. Next, AUC were calculated and compared by applying t tests for intergroup comparisons and repeated measures ANOVA followed by Dunnett post hoc tests for intragroup comparisons. […]

[7] = tested on: STZ-NA-hyperglycemic rats; test: Postprandial glucose and insulin levels (glucose tolerance test), hyperglycemic rats; assay type: in vivo, Wistar rats; conditions: glucose load 2 g/kg
Procedure: as §4, with “glucometers. […]” for “glucometers.”
as §5, §6

[8] = tested on: normoglycemic (healthy) rats; test: Postprandial glucose and insulin levels (glucose tolerance test), normoglycemic rats; assay type: in vivo, Wistar rats; conditions: glucose load 2 g/kg
Procedure: as §4, §5, §6

Nc1ncnc2c1ncn2[C@@H]1O[C@H](COP(=O)(O)O)[C@@H](O)[C@H]1O.O [AMP, adenosine 5′-monophosphate monohydrate]
pIC50 [1]: 4.02 | Inhibition % [1]: 96%

O=C(/C=C/c1ccc(O)c(O)c1)O[C@@H]1C[C@](O)(C(=O)O)C[C@@H](O)[C@H]1O [Clorogenic acid, chlorogenic acid]
pIC50 [2]: 3.46 | Inhibition % [2]: 83%

COc1ccc(Cl)cc1C(=O)NCCc1ccc(S(=O)(=O)NC(=O)NC2CCCCC2)cc1 [glibenclamide]
hypoglycemic effect compared with the hyperglycemic control group (H) ([3]; 60 min after administration, maintained throughout the experiment, p < 0.05): significant hypoglycemic effect | glucose decrease at the end of the study ([3]; STZ-NA-hyperglycemic rats fasted 4 h, oral, 3 h curve, glibenclamide 5 mg/kg, EtOH-WCg 30 mg/kg, junceic acid 5.6 mg/kg b.w.): 57% | decrease of total blood glucose (AUC) compared with control (H) ([3]; STZ-NA-hyperglycemic rats fasted 4 h, oral, glibenclamide 5 mg/kg, EtOH-WCg 30 mg/kg, junceic acid 5.6 mg/kg b.w.): 65% | effect on plasma insulin in fasting ([4]; EtOH-WCg 30 mg/kg b.w.): increase in plasma insulin | effect on blood glucose in fasting ([4]; EtOH-WCg 30 mg/kg, junceic acid 5.6 mg/kg b.w.): significant hypoglycemic effect | effect on blood glucose in fasting [5]: significant hypoglycemic effect | effect on plasma insulin in fasting [5]: increase in plasma insulin

CCc1ccc(CCOc2ccc(CC3SC(=O)NC3=O)cc2)nc1 (centres unmarked) [pioglitazone]
inverse AUC and KITT analyzes compared with control (C) ([6]; insulin tolerance test, 120 min): eliminated more glucose throughout the experiment at a higher removal rate than C | potentiation of the glucose-lowering effect of insulin compared with control (C) ([6]; isophane insulin 0.5 U/kg i.p. 45 min after treatment, pioglitazone 20 mg/kg, EtOH-WCg 30 mg/kg, junceic acid 5.6 mg/kg b.w.): exacerbated the glucose-lowering effect of insulin

CCOc1cc(CC(=O)N[C@@H](CC(C)C)c2ccccc2N2CCCCC2)ccc1C(=O)O [repaglinide]
increase of insulin levels ([7]; at 30 min, repaglinide 1 mg/kg b.w.): under 25% | effect on postprandial hyperglycemia after the glucose load ([7]; repaglinide 1 mg/kg, EtOH-WCg 30 mg/kg, junceic acid 5.6 mg/kg b.w.): significantly decreased the hyperglycemic peak | increase of insulin levels ([8]; healthy rats, at 30 min, repaglinide 1 mg/kg b.w.): more than 500% | effect on the hyperglycemic peak after the glucose load ([8]; normoglycemic rats, repaglinide 1 mg/kg, EtOH-WCg 30 mg/kg, junceic acid 5.6 mg/kg b.w.): significantly decreased the hyperglycemic peak
